In patent publication US20090005403A1, “Alkinyl-Oxypyrimidines Used in the Form of Pesticides” (priority 2005, published 2009):

How the values were obtained:
[1] = logP determination by HPLC on reversed-phase column (EEC Directive 79/831 annex V.A8); type: physicochemical
Experimental: Calibration was carried out using unbranched alkan-2-ones (having 3 to 16 carbon atoms) with known logP values (determination of logP values by the retention times using linear interpolation between two successive alkanone).

[2] = tested on: green peach aphid (Myzus persicae); assay: Myzus test (MYZUPE spray treatment); type: in vivo; conditions: 500 g/ha, spray treatment of Chinese cabbage disks, 100% = all aphids killed
Experimental: Myzus Test (MYZUPE Spray Treatment)
To produce a suitable preparation of active compound, 1 part by weight of active compound is mixed with the stated amounts of solvents and emulsifier, and the concentrate is diluted with emulsifier-containing water to the desired concentration.
Disks of Chinese cabbage (Brassica pekinensis) which are infested by all stages of green peach aphid (Myzus persicae) are sprayed with a preparation of active compound of the desired concentration.
(§1) After the desired period of time, the effect in % is determined. 100% means that all aphids have been killed; 0% means that none of the aphids have been killed.

[3] = tested on: cotton aphid (Aphis gossypii); assay: Aphis gossypii test (APHIGO); type: in vivo; conditions: 100 ppm, cotton leaves dipped, 100% = all aphids killed
Experimental: Aphis Gossypii Test (APHIGO)
To produce a suitable preparation of active compound, 1 part by weight of active compound is mixed with the stated amounts of solvent and emulsifier, and the concentrate is diluted with emulsifier-containing water to the desired concentration.
Cotton leaves (Gossypium hirsutum) which are heavily infested by the cotton aphid (Aphis gossypii) are treated by being dipped into the preparation of active compound of the desired concentration.
After the desired period of time, the kill in % is determined. 100% means that all aphids have been killed; 0% means that none of the aphids have been killed.

Myzus persicae = Myzus persicae (MYZUPE U); type: in vivo; conditions: 30 ppm, ingestion, 100% = all aphids killed
Experimental: Myzus Persicae (MYZUPE U)
To produce a suitable preparation of active compound, the active compound is mixed with the stated amounts of solvent, and the concentrate is diluted with stained water to the desired concentration.
The Myzus persicae are provided with a preparation of active compound of the desired concentration for ingestion.
as §1

[4] = reversed-phase HPLC column, in the preparation example, pH range not marked
[5] = reversed-phase C18 HPLC column, HPLC, reversed-phase C 18, 43° C., acidic range (pH 2.3), marked a)

Question: For `CC#CCOc1cc(-n2cc(Cl)cn2)ncn1` [Example 2, 4-butynyloxy-6-(4-chloropyrazol-1-yl)pyrimidine], which chromatographic logP [1, 4] is on record?
Answer: 3.65

Question: Which results are given for `CC#CCOc1cc(-c2cscc2C)ncn1` [Example 25]?
Answer: chromatographic logP [1, 5]: 3.26; effect in % (% 5 d) [2]: 80%; kill in % (% 6 d) [3]: 80%

Question: What does the source list for `CC#CCOc1cc(-c2cccs2)ncn1` [Example 6]?
Answer: chromatographic logP [1, 5]: 2.95; effect in % (% 5 d) [2]: 90%

Question: Which results are given for `CC#CCOc1cc(-n2ccnc2)ncn1` [Example 12]?
Answer: chromatographic logP [1, 5]: 1; effect in % (% 6-7 d) (Myzus persicae): 100%

Question: With `CC#CCOc1cc(-c2ccccn2)ncn1` [Example 3] as the compound, how does the chromatographic logP [1, 5] read?
Answer: 2.31

Question: And the “effect in % (% 5 d)” value [2]?
Answer: 80%

Question: With `CC#CCOc1cc(-c2ccsc2)ncn1` [Example 1, 4-(2-butyn-1-yl-oxy)-6-(3-thienyl)-pyrimidine] as the compound, how does the chromatographic logP [1, 4] read?
Answer: 2.84

Question: For `CC#CCOc1cc(-n2cccn2)ncn1` [Example 8], which chromatographic logP [1, 5] is on record?
Answer: 2.55

Question: What about the “effect in % (% 5 d)” value [2] of the same compound?
Answer: 90%

Question: With `Clc1cc(-c2ccsc2)ncn1` [II-1, 4-chloro-6-(3-thienyl)pyrimidine] as the compound, how does the chromatographic logP [1, 4] read?
Answer: 2.31
